Where two headings read alike, the source gives them in different places.
Experiments:
[1] = biological target: benzodiazepine site of the GABA-A receptor; assay: Benzodiazepine Receptor Binding Assay (inhibition of 3H-flunitrazepam binding); details: read-out: GABAA Receptor Binding IC50
[2] = system: metrazol-induced convulsions; assay: Suppression of Metrazol-Induced Convulsions in Adult Male Mice; assay type: in vivo; details: Mus musculus, ip
Method: Assay to Determine the Suppression of Metrazol-Induced Convulsions in Adult Male Mice
Male CD1 mice, were fasted at least 16 hours, were divided into equal groups and test compounds or vehicle were administered parenterally. Water was not withheld except during the period of observations. […] Metrazol was dissolved in 0.9% sodium chloride solution, and its dose volume was 10 ml/kg. Animals were housed individually for observation of clonic convulsions, tonic convulsions and death for a period of 30 min. […] The biological assay was considered to be valid if the effects of a known anticonvulsant (positive control) were detected, within the same experiment. Activity was reported as percent reduction of clonic convulsions from the vehicle group.

[3] = system: Anxiety in the Adult Male Rat; assay: Suppression of Anxiety in the Adult Male Rat (rat conflict test); assay type: in vivo, rats; details: Rattus norvegicus
Method: Assay to Measure the Suppression of Anxiety in the Adult Male Rat
Male rats were deprived of water for 48 hours and were deprived of food for 24 hours prior to testing. After the first 24 hours of water deprivation, they were placed in the conflict chamber for a training period; wherein, they were allowed 200 unpunished licks from a bottle containing tap water. The experiment was run the next day. At the expected time of peak activity, the animals were placed in the chamber and allowed access to tap water. […] Their first lick initiates a 3-min test session. Subsequently, every 20th lick was punished by a 0.2-s shock delivered via the stainless-steel drinking-tube.
The Wilcoxon rank-sum test (Mann-Whitney U-test) was used to test for an increase (p<0.05, 1-tailed) in the median number of shocks in drug-treated groups, compared to a concurrently run vehicle-treated group. The biological assay is considered to be valid if the effects of a known anxiolytic (positive control) are detected, within the same experiment.

[4] = system: metrazol-induced convulsions; assay: Suppression of Metrazol-Induced Convulsions in Adult Male Mice; assay type: in vivo; details: Mus musculus, po
[5] = po, rat, po, read-out: Rat Conflict (MED, mg/kg) po
[6] = ip, rat, ip, read-out: Rat Conflict (MED, mg/kg) ip
[7] = inhibition of 3H-flunitrazepam (ca. 3 nM) binding to membranes, 25°C, over 10,000 = not active
[8] = block of clonic convulsions, male CD1 mice, >30 = active dose not determined
[9] = ip, minimum effective dose, increase in shocks tolerated, >10 = active dose not determined, read-out: Rat Conflict (MED, mg/kg) ip
[10] = po, minimum effective dose, increase in shocks tolerated, >10 = active dose not determined, read-out: Rat Conflict (MED, mg/kg) po

Row | SMILES | IC50 [1] | ED50 ([2]; mouse) | minimal effective dose [3, 5] | ED50 ([4]; mouse) | minimal effective dose [3, 6] | IC50 [1, 7] | ED50 [2, 8] | minimal effective dose [3, 9] | minimal effective dose [3, 10] | ED50 [4, 8]
1 | N#CCN1C2=C(C(=O)NC3CC3)C(=O)CCN2c2ccc(F)cc21 [Compound 77] | 0.86 nM | < 1 mg/kg | > 10 mg/kg | > 30 mg/kg |  |  |  |  |  | 
2 | N#CCN1C2=C(C(=O)NC3CCCCC3)C(=O)CCN2c2ccc(F)cc21 [Compound 78] | 30 nM | > 1 mg/kg | > 10 mg/kg | > 30 mg/kg |  |  |  |  |  | 
3 | CC(C)NC(=O)NCCN1C2=C(C(=O)Nc3ccccc3F)C(=O)CCN2c2ccc(F)cc21 [Compound 79] | 10.5 nM | > 1 mg/kg | > 10 mg/kg | > 30 mg/kg |  |  |  |  |  | 
4 | CC(C)(C)OC(=O)N1CCN(CCN2C3=C(C(=O)Nc4ccccc4F)C(=O)CCN3c3ccc(F)cc32)CC1 [Compound 80] | 3.7 nM | > 1 mg/kg | > 10 mg/kg | > 30 mg/kg |  |  |  |  |  | 
5 | O=C1CCN2C(=C1C(=O)Nc1ccccc1F)N(CCN1CCNCC1)c1cc(F)ccc12 [Compound 81] | 12.7 nM | > 1 mg/kg | > 10 mg/kg | > 30 mg/kg |  |  |  |  |  | 
6 | CN(C)c1ccc(CCN2C3=C(C(=O)Nc4c(F)cccc4F)C(=O)CCN3c3ccc(F)cc32)cc1 [Compound 83] | 36.2 nM | 3 mg/kg |  | < 30 mg/kg | > 10 mg/kg |  |  |  |  | 
7 | CN(C)c1ccc(CCN2C3=C(C(=O)Nc4ccccc4F)C(=O)CCN3c3ccc(F)cc32)cc1 [Compound 84] | 8.52 nM | 1 mg/kg |  | < 30 mg/kg | > 10 mg/kg |  |  |  |  | 
8 | CN1CCCC(N2C3=C(C(=O)Nc4ccccc4F)C(=O)CCN3c3ccc(F)cc32)C1 (stereo not shown) [Compound 87] |  |  |  |  |  | 30.7 nM | 3 mg/kg | > 10 mg/kg | > 10 mg/kg | 10 mg/kg
9 | O=C1CCN2C(=C1C(=O)Nc1ccccc1F)N(CCN1CCOCC1)c1cc(F)ccc12 [Compound 88] |  |  |  |  |  | 3.67 nM | 0.1 mg/kg | > 10 mg/kg | 10 mg/kg | 7 mg/kg
10 | N#CCN1C2=C(C(=O)Nc3ccccc3F)C(=O)CCN2c2ccc(F)cc21 [Compound 89] |  |  |  |  |  | 1.84 nM | < 1 mg/kg |  | 1 mg/kg | 0.5 mg/kg
11 | COc1cccc(NC(=O)C2=C3N(CC#N)c4ccccc4N3CCC2=O)c1 [Compound 90] |  |  |  |  |  | 6.04 nM | < 1 mg/kg |  | 1 mg/kg | 0.5 mg/kg
12 | CCOCN1C2=C(C(=O)Nc3ccc(OC(=O)OC)cc3F)C(=O)CCN2c2ccc(F)cc21 [Compound 100] | 4.35 nM | ≥ 1 mg/kg | ~1 mg/kg | 3 to 30 mg/kg |  |  |  |  |  | 
13 | CCOCN1C2=C(C(=O)Nc3ccc(C)s3)C(=O)CCN2c2ccccc21 [Compound 101] | 0.95 nM | < 1 mg/kg | 3 mg/kg | < 3 mg/kg |  |  |  |  |  | 
14 | COCCN1C2=C(C(=O)Nc3nccs3)C(=O)CCN2c2ccccc21 [Compound 102] | 8.82 nM | ~1 mg/kg | 10 mg/kg | ~6 mg/kg |  |  |  |  |  | 
15 | CCOCN1C2=C(C(=O)Nc3ccccc3F)C(=O)CCN2c2ccc(F)c(F)c21 [Compound 103] | 0.55 nM | < 1 mg/kg | 1 mg/kg | < 3 mg/kg |  |  |  |  |  | 
16 | CCOCN1C2=C(C(=O)Nc3ccc(OC)cc3)C(=O)CCN2c2ccc(F)cc21 [Compound 104] | 1.04 nM | < 1 mg/kg | 0.1 mg/kg | < 3 mg/kg |  |  |  |  |  | 
17 | CCOCN1C2=C(C(=O)Nc3cccs3)C(=O)CCN2c2ccccc21 [Compound 105] | 0.84 nM | < 1 mg/kg | 10 mg/kg | < 3 mg/kg |  |  |  |  |  | 
18 | COCCN1C2=C(C(=O)Nc3ccc(OC)cc3)C(=O)CCN2c2ccc(F)cc21 [Compound 106] | 4.47 nM | < 1 mg/kg | 1 mg/kg | 0.3 mg/kg |  |  |  |  |  | 
19 | COCCN1C2=C(C(=O)Nc3ccccc3F)C(=O)CCN2c2c(O)cccc21 [Compound 108] | 10.4 nM | > 1 mg/kg | > 10 mg/kg | ≥ 30 mg/kg |  |  |  |  |  | 
20 | COCCN1C2=C(C(=O)NC3CCCCC3)C(=O)CCN2c2ccc(F)cc21 [Compound 110] | 19.1 nM | ≥ 1 mg/kg | 10 mg/kg | ≥ 30 mg/kg |  |  |  |  |  | 

Row | SMILES | IC50 [1] | ED50 ([2]; mouse) | minimal effective dose [3, 5] | ED50 ([4]; mouse) | minimal effective dose [3, 6] | IC50 [1, 7] | ED50 [2, 8] | minimal effective dose [3, 9] | minimal effective dose [3, 10] | ED50 [4, 8]
21 | CCOCN1C2=C(C(=O)NC3CC3)C(=O)CCN2c2ccc(F)cc21 [Compound 111] | 1.9 nM | > 1 mg/kg | > 10 mg/kg | > 30 mg/kg |  |  |  |  |  | 
22 | COC(=O)OCCN1C2=C(C(=O)Nc3ccccc3F)C(=O)CCN2c2ccc(F)cc21 [Compound 114, 7-Fluoro-1,2-dihydro-5-[2-(methoxycarbonyloxy)ethyl]-3-oxo-N-(2-fluorophenyl)pyrido[1,2-a]benzimidazole-4-carboxamide] | 0.3 nM | < 1 mg/kg | 3 mg/kg | ≤ 3 mg/kg |  |  |  |  |  | 
23 | CCOCN1C2=C(C(=O)Nc3cc4ccccc4s3)C(=O)CCN2c2ccccc21 [Compound 116] | 100 nM | > 1 mg/kg | > 10 mg/kg | > 30 mg/kg |  |  |  |  |  | 
24 | COCCN1C2=C(C(=O)NC3CC3)C(=O)CCN2c2ccc(F)cc21 [Compound 118] | 3.68 nM | < 1 mg/kg | 10 mg/kg | ~3 mg/kg |  |  |  |  |  | 
25 | CCOCN1C2=C(C(=O)Nc3ccc(S(C)(=O)=O)s3)C(=O)CCN2c2ccc(F)cc21 [Compound 120] | 35.1 nM | > 1 mg/kg | > 10 mg/kg | ~3 mg/kg |  |  |  |  |  | 
26 | CCOCCN1C2=C(C(=O)Nc3ccc(S(C)(=O)=O)s3)C(=O)CCN2c2ccc(F)cc21 [Compound 121] | 84 nM | > 1 mg/kg | > 10 mg/kg | > 30 mg/kg |  |  |  |  |  | 
27 | CCOCN1C2=C(C(=O)Nc3ccc(F)cc3F)C(=O)CCN2c2ccc(F)cc21 [Compound 123] | 1.19 nM | < 1 mg/kg | 0.1 mg/kg | < 3 mg/kg | ≤ 0.1 mg/kg |  |  |  |  | 
28 | CCOCN1C2=C(C(=O)Nc3ccsc3)C(=O)CCN2c2ccc(F)cc21 [Compound 124] | 0.98 nM | < 1 mg/kg | ~0.3 mg/kg | ~0.2 mg/kg |  |  |  |  |  | 
29 | CCOCCN1C2=C(C(=O)Nc3sccc3Cl)C(=O)CCN2c2ccc(F)cc21 [Compound 125] | 0.89 nM | < 1 mg/kg | > 10 mg/kg | > 30 mg/kg |  |  |  |  |  | 
30 | CCOCCN1C2=C(C(=O)Nc3cccs3)C(=O)CCN2c2ccc(F)cc21 [Compound 126] | 0.73 nM | < 1 mg/kg | 0.1 mg/kg | ~0.6 mg/kg |  |  |  |  |  | 
31 | CCOCN1C2=C(C(=O)Nc3c(F)cccc3F)C(=O)CCN2c2c1ccc(F)c2F [Compound 127] | 585 nM | ~1 mg/kg | > 10 mg/kg | > 30 mg/kg |  |  |  |  |  | 
32 | CCOCN1C2=C(C(=O)Nc3cccs3)C(=O)CCN2c2ccc(F)cc21 [Compound 129] | 1.05 nM | < 1 mg/kg | 3 mg/kg | ~0.2 mg/kg |  |  |  |  |  | 
33 | CCOCCN1C2=C(C(=O)Nc3ccnc(F)c3)C(=O)CCN2c2ccc(F)cc21 [Compound 130] | 2.27 nM | < 1 mg/kg | 1 mg/kg | ~0.8 mg/kg |  |  |  |  |  | 
34 | CCOCCN1C2=C(C(=O)Nc3ccc(C)s3)C(=O)CCN2c2ccc(F)cc21 [Compound 131] | 1.03 nM | < 1 mg/kg | ~1 mg/kg | ~0.6 mg/kg |  |  |  |  |  | 
35 | CCOCN1C2=C(C(=O)Nc3ccc(Cl)s3)C(=O)CCN2c2ccc(F)cc21 [Compound 134] | 1.81 nM | < 1 mg/kg | > 10 mg/kg | 2 mg/kg |  |  |  |  |  | 
36 | COCCN1C2=C(C(=O)Nc3ccc(F)cc3F)C(=O)CCN2c2ccc(F)cc21 [Compound 136] | 5.55 nM | < 1 mg/kg | 0.3 mg/kg | 0.3 mg/kg |  |  |  |  |  | 
37 | CCOCCN1C2=C(C(=O)Nc3ccc(F)cc3F)C(=O)CCN2c2ccc(F)cc21 [Compound 137] | 2.4 nM | < 1 mg/kg | 1 mg/kg | 0.15 mg/kg | 1 mg/kg |  |  |  |  | 
38 | COCCN1C2=C(C(=O)Nc3sccc3Cl)C(=O)CCN2c2ccc(F)cc21 [Compound 138] | 1.34 nM | < 1 mg/kg | > 10 mg/kg | 30 mg/kg |  |  |  |  |  | 
39 | COCCN1C2=C(C(=O)Nc3cccs3)C(=O)CCN2c2ccc(F)cc21 [Compound 139] | 1.79 nM | < 1 mg/kg | ~1 mg/kg | ~0.2 mg/kg |  |  |  |  |  | 

From patent EP1420018A1, “Pyrido[1,2-a]benzimidazole derivatives useful in treating central nervous system disorders” (Ortho-McNeil Pharmaceutical, Inc., priority 1996, dated 1998)
